# Source: US20090270407A1, “FUNGICIDAL ISOXAZOLIDINES” (E. I. DU PONT DE NEMOURS AND COMPANY, priority 2008, published 2009)
# Marks after values point to notes of the source that are not given here.
# Key:
# Conditions in all cases: 100 = 100 % disease control, 0 = no disease control relative to controls
# [1] = test system: Erysiphe graminis f. sp. tritici; test: Test A: wheat powdery mildew, preventive spray on wheat seedlings, visual disease rating
# Description: General protocol for preparing test suspensions for Tests A-I: The test compounds were first dissolved in acetone in an amount equal to 3% of the final volume and then suspended at the desired concentration (in ppm) in acetone and purified water (50/50 mix) containing 250 ppm of the surfactant Trem® 014 (polyhydric alcohol esters). The resulting test suspensions were then used in Tests A-I. Spraying a 200 ppm test suspension to the point of run-off on the test plants was the equivalent of a rate of 500 g/ha. (An asterisk “*” next to the rating value indicates a 40 ppm test suspension.)
# The test suspension was sprayed to the point of run-off on wheat seedlings. The following day the seedlings were inoculated with a spore dust of Erysiphe graminis f. sp. tritici (the causal agent of wheat powdery mildew) and incubated in a growth chamber at 20° C. for 8 days, after which time visual disease ratings were made.
# [2] = test system: Puccinia recondita f. sp. tritici; test: Test B: wheat leaf rust, preventive spray on wheat seedlings, visual disease rating
# Description: (§1) General protocol for preparing test suspensions for Tests A-I: The test compounds were first dissolved in acetone in an amount equal to 3% of the final volume and then suspended at the desired concentration (in ppm) in acetone and purified water (50/50 mix) containing 250 ppm of the surfactant Trem® 014 (polyhydric alcohol esters). The resulting test suspensions were then used in Tests A-I. Spraying a 200 ppm test suspension to the point of run-off on the test plants was the equivalent of a rate of 500 g/ha.
# The test suspension was sprayed to the point of run-off on wheat seedlings. The following day the seedlings were inoculated with a spore suspension of Puccinia recondita f. sp. tritici (the causal agent of wheat leaf rust) and incubated in a saturated atmosphere at 20° C. for 24 h, and then moved to a growth chamber at 20° C. for 7 days, after which time visual disease ratings were made.
# (§2) All results are for 200 ppm except where followed by “*” which indicates 40 ppm.
# [3] = test system: Septoria tritici; test: Test D: wheat leaf blotch, preventive spray on wheat seedlings, visual disease rating; format: in vivo
# Description: A dash (−) indicates no test results.
# [4] = test system: Septoria nodorum; test: Test C: wheat glume blotch, preventive spray on wheat seedlings, visual disease rating
# Description: (An asterisk “*” next to the rating value indicates a 40 ppm test suspension.)
# The test suspension was sprayed to the point of run-off on wheat seedlings. The following day the seedlings were inoculated with a spore suspension of Septoria nodorum (the causal agent of wheat glume blotch) and incubated in a saturated atmosphere at 20° C. for 48 h, and then moved to a growth chamber at 20° C. for 7 days, after which time visual disease ratings were made.
# A dash (−) indicates no test results. All results are for 200 ppm except where followed by “*” which indicates 40 ppm.
# [5] = test system: Alternaria solani; test: Test F: tomato early blight, preventive spray on tomato seedlings, visual disease rating
# [6] = test system: Botrytis cinerea; test: Test E: tomato Botrytis, preventive spray on tomato seedlings, visual disease rating
# Description: as §1
# The test suspension was sprayed to the point of run-off on tomato seedlings. The following day the seedlings were inoculated with a spore suspension of Botrytis cinerea (the causal agent of tomato Botrytis) and incubated in saturated atmosphere at 20° C. for 48 h, and then moved to a growth chamber at 24° C. for 3 additional days, after which time visual disease ratings were made.
# as §2
SMILES,Test A disease control rating ([1]; 200 ppm),Test B disease control rating ([2]; 200 ppm),Test D disease control rating ([3]; 200 ppm),Test C disease control rating ([4]; 200 ppm),Test F disease control rating ([5]; 200 ppm),Test E disease control rating ([6]; 200 ppm),Test A disease control rating ([1]; 40 ppm (marked *)),Test B disease control rating ([2]; 40 ppm (marked *)),Test D disease control rating ([3]; 40 ppm (marked *)),Test C disease control rating ([4]; 40 ppm (marked *)),Test F disease control rating ([5]; 40 ppm (marked *)),Test E disease control rating ([6]; 40 ppm (marked *))
CN1OC(C)(c2cccnc2)CC1c1ccccc1I (mixture of isomers) [Compound 88],81%,27%,70%,0%,0%,0%,–,–,–,–,–,–
CN1OC(C)(c2cccnc2)CC1c1ccc(-n2ccc(-c3ccc(Br)cc3)n2)cc1 (stereo not drawn) [Compound 48],–,–,–,–,–,–,61* %,0* %,43* %,0* %,0* %,20* %
Cc1ccn(-c2ccc(C3CC(C)(c4cccnc4)ON3C)cc2)n1 (stereo not drawn) [Compound 43],–,–,–,–,–,–,0* %,0* %,79* %,90* %,52* %,88* %
CN1OC(C)(c2cccnc2)CC1c1cccc(I)c1 (mixture of isomers) [Compound 87],0%,0%,84%,0%,0%,0%,–,–,–,–,–,–
CN1OC(C)(c2cccnc2)CC1c1ccc(-c2cncnc2)cc1 (stereo not drawn) [Compound 53],–,–,–,–,–,–,0* %,0* %,68* %,0* %,31* %,25* %
CN1OC(c2cccnc2)(C(F)(F)F)CC1c1ccc(-n2ccc(C(F)(F)F)n2)cc1 (stereo not drawn) [Compound 44],–,–,–,–,–,–,100* %,19* %,89* %,69* %,0* %,0* %
CN1OC(C)(c2cccnc2)CC1c1ccccc1Br (stereo not drawn) [Compound 65],0%,0%,5%,0%,0%,0%,–,–,–,–,–,–
CN1OC(C)(c2cccnc2)CC1c1ccc(-n2nc(C(F)(F)F)cc2-c2ccccn2)cc1 (stereo not drawn) [Compound 70],–,–,–,–,–,–,0* %,26* %,54* %,0* %,72* %,0* %
CN1OC(C)(c2cccnc2)CC1c1ccc(-c2ccnn2CC(F)(F)F)cc1 (mixture of isomers) [Compound 63],21%,0%,36%,0%,8%,0%,–,–,–,–,–,–
CN1OC(C)(c2cccnc2)CC1c1ccccc1F (stereo not drawn) [Compound 78],0%,0%,16%,0%,0%,0%,–,–,–,–,–,–
Cc1cc(C)n(-c2ccc(C3CC(C)(c4cccnc4)ON3C)cc2)n1 (stereo not drawn) [Compound 50],–,–,–,–,–,–,0* %,0* %,73* %,87* %,0* %,84* %
CN1OC(C)(c2cccnc2)CC1c1ccc(-n2ccc(-c3cccs3)n2)cc1 (stereo not drawn) [Compound 46],–,–,–,–,–,–,0* %,0* %,62* %,0* %,0* %,78* %
CN1OC(C)(c2cccnc2)CC1c1ccc(-c2ccncc2)cc1 (stereo not drawn) [Compound 61],–,–,–,–,–,–,0* %,0* %,5* %,0* %,0* %,0* %
CN(C)c1ccc(C2CC(C)(c3cccnc3)ON2C)c2ccccc12 (mixture of isomers) [Compound 90],0%,0%,35%,0%,0%,0%,–,–,–,–,–,–
CN1OC(C)(c2cccnc2)CC1c1ccc(-c2cccs2)cc1 (stereo not drawn) [Compound 55],–,–,–,–,–,–,61* %,0* %,93* %,84* %,85* %,97* %
COc1cc(Br)ccc1C1CC(C)(c2cccnc2)ON1C (stereo not drawn) [Compound 86],91%,9%,76%,0%,0%,0%,–,–,–,–,–,–
COc1cc(Br)ccc1C1CC(C)(c2cccnc2)ON1C (stereo not drawn) [Compound 85],90%,0%,89%,64%,92%,0%,–,–,–,–,–,–
COc1ccccc1C1CC(C)(c2cccnc2)ON1C (mixture of isomers) [Compound 100],21%,0%,13%,0%,8%,26%,–,–,–,–,–,–
COc1ccc(C2CC(C)(c3cccnc3)ON2C)c2ccccc12 (mixture of isomers) [Compound 68],0%,0%,65%,0%,0%,0%,–,–,–,–,–,–
CN1OC(C)(c2cccnc2)CC1c1ccc(Br)cc1F (stereo not drawn) [Compound 96],48%,0%,77%,78%,0%,0%,–,–,–,–,–,–
CN1OC(C)(c2cccnc2)CC1c1ccc(Br)cc1Br (stereo not drawn) [Compound 83],98%,0%,91%,81%,56%,82%,–,–,–,–,–,–
CN1OC(C)(c2cccnc2)CC1c1ccccc1Br (stereo not drawn) [Compound 66],0%,0%,5%,0%,0%,0%,–,–,–,–,–,–
Cc1ccn(-c2ccc(C3CC(C)(c4cccnc4)ON3C)cc2)n1 (stereo not drawn) [Compound 42],–,–,–,–,–,–,71* %,9* %,88* %,100* %,97* %,99* %
Cc1ccccc1C1CC(C)(c2cccnc2)ON1C (mixture of isomers) [Compound 99],0%,17%,18%,0%,0%,0%,–,–,–,–,–,–
CN1OC(C)(c2cccnc2)CC1c1ccc(-c2cncnc2)cc1 (stereo not drawn) [Compound 52],–,–,–,–,–,–,0* %,0* %,76* %,99* %,59* %,92* %
CN1OC(C)(c2cccnc2)CC1c1cccc2c1OC(F)(F)O2 (stereo not drawn) [Compound 91],0%,0%,0%,0%,0%,0%,–,–,–,–,–,–
CN1OC(C)(c2cccnc2)CC1c1cccc(Cl)c1 (stereo not drawn) [Compound 76],84%,0%,34%,0%,9%,85%,–,–,–,–,–,–
CN1OC(C)(c2cccnc2)CC1c1ccc(-n2cc(I)cn2)cc1 (stereo not drawn) [Compound 56],–,–,–,–,–,–,52* %,0* %,74* %,99* %,91* %,94* %
CN1OC(C)(c2cccnc2)CC1c1ccccc1F (stereo not drawn) [Compound 79],0%,27%,7%,22%,0%,0%,–,–,–,–,–,–
CN1OC(C)(c2cccnc2)CC1c1ccc(F)c(F)c1 (stereo not drawn) [Compound 81],56%,0%,15%,0%,0%,78%,–,–,–,–,–,–
